Measured values reported in patent US20230150924A1, “NOVEL COMPOUND HAVING CANCER METASTASIS INHIBITORY ACTIVITY, PREPARATION METHOD THEREFOR, AND PHARMACEUTICAL COMPOSITION FOR INHIBITING CANCER METASTASIS AND INVASION OR TREATING COLORECTAL CANCER, COMPRISING COMPOUND” (CELLGENTEK CO., LTD., priority 2019, published 2023).

Legend:
KAI1 promoter = KAI1 promoter luciferase reporter assay in transfected Caco2 cells; format: cell-based, human; details: 1 μM compound, 16 hours, transfected Caco2 cells, luciferase activity relative to DMSO control (=1); for fold induction at 1 µM: Homo sapiens, Caco-2, 16 h, read-out: Relative KAI promoter activity
Experimental: Experiments were conducted to evaluate the metastasis-related promoter activity-increasing effects of the compounds according to the present invention. Specifically, the KAI1 promoter reporter vector was used. In this case, the pRL-TK vector, a vector expressing renilla luciferase, was used as an internal control indicating the transfection efficiency in each transfected well.
First, 24 hours before transfection, 2×10^6 human colon cancer cell line, Caco2) cells were cultured in 10 ml of DMEM containing 10% FBS and 1% penicillin/streptomycin on a 100-mm-diameter plate, and then transformed with 5 μg of a pRL-TK vector mixture containing a transfection reagent and the KAI1 promoter, and then cultured in a 5% CO2 incubator at 37° C. for 48 hours. Thereafter, the adherent cells were detached using trypsin and counted using a hemacytometer, and then 5×10^3 transfected Caco2 cells in 100 μl of DMEM containing 10% FBS and 1% penicillin/streptomycin were seeded into each well of a 96-well plate and cultured in a 5% CO2 incubator at 37° C. for 24 hours. Next, 1 μM of each of the 305 compounds prepared in Examples 1 to 305 was added to each well, and after 16 hours, 100 μl of a lysis buffer for analysis containing a luciferase substrate was added, and the cells were lysed with stirring for 20 minutes. After completion of lysis, the cells were measured for luciferase activity using a luciferase reporter assay system (Promega, USA). […] In addition, data were analyzed at a significance level of p<0.05 by one-way ANOVA (Tukey's HSD), and SPSS 17.0 (Chicago, USA) statistical program was used. In Table 14 to 20, PHA is the PHA-665752, and KIT is KITENIN.

[1] = test system: invasion of colorectal cancer cells; test: In vivo relative invation (invasion; EV and KITENIN controls, no method described); details: relative to EV (=1); KIT = KITENIN

Row | Structure (SMILES) | fold induction at 1 µM (KAI1 promoter) | In vivo relative invation [1] | Relative KAI promoter activity (KAI1 promoter)
1 | CN(C)c1ccc(C(=O)CNC(=O)c2ccccc2C(F)(F)F)cc1 [Example 112, N-(2-(4-(dimethylamino)phenyl)-2-oxoethyl)-2-(trifluoromethyl)benzamide] | 2.82 | 0.9835 | –
2 | CCCCC(=O)NCC(=O)c1ccc(Cl)cc1 [Example 61, N-(2-(4-chlorophenyl)-2-oxoethyl)pentanamide] | 0.72 | 1 | –
3 | O=C(CNC(=O)c1ccccc1OC1CCN(C(=O)CCc2ccccc2)CC1)c1ccccc1 [Example 159, N-(2-oxo-2-phenylethyl)-2-((1-(3-phenylpropanoyl)piperidin-4-yl)oxy)benzamide] | 0.99 | 1.059 | –
4 | COc1ccc(C(=O)NCC(=O)c2ccc(Cl)cc2)cc1 [Example 62, N-(2-(4-chlorophenyl)-2-oxoethyl)-4-methoxybenzamide] | – | 1.122 | 1.03
5 | O=C(CNC(=O)c1ccccc1OC1CCN(C(=O)c2ccccc2C(F)(F)F)CC1)c1ccccc1 [Example 191, N-(2-oxo-2-phenylethyl)-2-((1-(2-(trifluoromethyl)benzoyl)piperidin-4-yl)oxy)benzamide] | 0.84 | 1.106 | –
6 | O=C(CNC(=O)c1ccco1)c1ccc(Cl)cc1 [Example 46, N-(2-(4-chlorophenyl)-2-oxoethyl)furan-2-carboxamide] | 0.98 | 1.181 | –
7 | CC(C)(C)CC(=O)N1CCC(Oc2ccccc2C(=O)NCC(=O)c2ccccc2)CC1 [Example 170, 2-((1-(3,3-dimethylbutanoyl)piperidin-4-yl)oxy)-N-(2-oxo-2-phenylethyl)benzamide] | 1.03 | 1.244 | –
8 | COc1cccc(C(=O)CNC(=O)c2cccs2)c1 [Example 127, N-(2-(3-methoxyphenyl)-2-oxoethyl)thiophene-2-carboxamide] | 2.46 | 1.351 | –
9 | O=C(CNC(=O)c1ccccc1OC1CCN(C(=O)c2ccc(F)c(F)c2)CC1)c1ccccc1 [Example 196, 2-((1-(3,4-difluorobenzoyl)piperidin-4-yl)oxy)-N-(2-oxo-2-phenylethyl)benzamide] | 0.84 | 1.113 | –
10 | COc1ccccc1N1CCN(Cc2cccc(C(=O)NCC(=O)c3ccccc3)c2)CC1 [Example 236, 3-((4-(2-methoxyphenyl)piperazin-1-yl)methyl)-N-(2-oxo-2-phenylethyl)benzamide] | 1.3 | 1.112 | –
11 | O=C(CNC(=O)c1ccccc1CN1CCN(c2ncccn2)CC1)c1ccccc1 [Example 300, N-(2-oxo-2-phenylethyl)-2-((4-(pyrimidin-2-yl)piperazin-1-yl)methyl)benzamide] | 1.91 | 0.9869 | –
12 | O=C(CNC(=O)c1ccccc1OC(F)(F)F)c1ccc(Cl)cc1 [Example 84, N-(2-(4-chlorophenyl)-2-oxoethyl)-2-(trifluoromethoxy)benzamide] | 0.94 | 1.181 | –
13 | CN(C)c1ccc(C(=O)CNC(=O)c2ccco2)cc1 [Example 92, N-(2-(4-(dimethylamino)phenyl)-2-oxoethyl)furan-2-carboxamide] | 2.29 | 1.064 | –
14 | C=CCN(CC=C)Cc1cccc(C(=O)NCC(=O)c2ccccc2)c1 [Example 241, 3-((diallylamino)methyl)-N-(2-oxo-2-phenylethyl)benzamide] | 1.1 | 1.126 | –
15 | O=C(CNC(=O)c1ccc(F)cc1)c1cccnc1 [Example 133, 4-fluoro-N-(2-oxo-2-(pyridin-3-yl)ethyl)benzamide] | 1.15 | 1.32 | –
16 | CCC(=O)N1CCC(Oc2ccccc2C(=O)NCC(=O)c2ccccc2)CC1 [Example 164, N-(2-oxo-2-phenylethyl)-2-((1-propionylpiperidin-4-yl)oxy)benzamide] | 0.98 | 1.088 | –
17 | O=C(CNC(=O)c1ccccc1OC1CCN(C(=O)c2ccccc2F)CC1)c1ccccc1 [Example 153, 2-((1-(2-fluorobenzoyl)piperidin-4-yl)oxy)-N-(2-oxo-2-phenylethyl)benzamide] | 1.05 | 1.095 | –
18 | CC(C)(C)OC(=O)N1CCN(Cc2cccc(C(=O)NCC(=O)c3ccccc3)c2)CC1 [Example 245, tert-butyl 4-(3-((2-oxo-2-phenylethyl)carbamoyl)benzyl) piperazine-1-carboxylate] | 1.35 | 1.126 | –

Row | Structure (SMILES) | fold induction at 1 µM (KAI1 promoter) | In vivo relative invation [1] | Relative KAI promoter activity (KAI1 promoter)
19 | CC(Oc1ccccc1)C(=O)NCC(=O)c1cccnc1 (stereo not shown) [Example 131, N-(2-oxo-2-(pyridin-3-yl)ethyl)-2-phenoxypropanamide] | 1.19 | 1.293 | –
20 | CC1CN(Cc2ccc(C(=O)NCC(=O)c3ccccc3)cc2)CC(C)O1 (stereo not shown) [Example 278, 4-((2,6-dimethylmorpholino)methyl)-N-(2-oxo-2-phenylethyl)benzamide] | 1.38 | 1.217 | –
21 | O=C(CNC(=O)c1ccccc1CN1CCOCC1)c1ccccc1 [Example 304, 2-(morpholinomethyl)-N-(2-oxo-2-phenylethyl)benzamide] | 1.24 | 1.193 | –
22 | CN(Cc1ccc(C(=O)NCC(=O)c2ccccc2)cc1)c1ccccc1 [Example 262, 4-((methyl (phenyl)amino)methyl)-N-(2-oxo-2-phenylethyl)benzamide] | 1.54 | 1.09 | –
23 | CC(C)(C)C(=O)NCC(=O)c1ccc(Cl)cc1 [Example 66, N-(2-(4-chlorophenyl)-2-oxoethyl)pivalamide] | 0.87 | 1.168 | –
24 | O=C(CNC(=O)c1cccc(OC(F)(F)F)c1)c1ccccc1 [Example 39, N-(2-oxo-2-phenylethyl)-3-(trifluoromethoxy)benzamide] | 1.21 | 0.5984 | –
25 | Cc1cc(C)cc(C(=O)NCC(=O)c2ccc(N(C)C)cc2)c1 [Example 120, N-(2-(4-(dimethylamino)phenyl)-2-oxoethyl)-3,5-dimethylbenzamide] | 1.38 | 1.097 | –
26 | O=C(CNC(=O)C1CCCCC1)c1ccc(Cl)cc1 [Example 55, N-(2-(4-chlorophenyl)-2-oxoethyl)cyclohexanecarboxamide] | 0.67 | 1.179 | –
27 | CN(C)c1ccc(C(=O)CNC(=O)c2cccc(Cl)c2)cc1 [Example 94, 3-chloro-N-(2-(4-(dimethylamino)phenyl)-2-oxoethyl)benzamide] | 1.81 | 1.096 | –
28 | CC(=O)N1CCC(Oc2ccccc2C(=O)NCC(=O)c2ccccc2)CC1 [Example 182, 2-((1-acetylpiperidin-4-yl)oxy)-N-(2-oxo-2-phenylethyl)benzamide] | 0.93 | 1.095 | –
29 | COc1cc(OC)cc(C(=O)NCC(=O)c2ccc(Cl)cc2)c1 [Example 85, N-(2-(4-chlorophenyl)-2-oxoethyl)-3,5imethoxybenzamide] | 0.96 | 1.206 | –
30 | CC(C)N(C)Cc1cccc(C(=O)NCC(=O)c2ccccc2)c1 [Example 233, 3-((isopropyl(methyl)amino)methyl)-N-(2-oxo-2-phenylethyl)benzamide] | 1.15 | 1.026 | –
31 | O=C(COc1ccccc1C(=O)NCC(=O)c1ccccc1)Nc1ccccc1Cl [Example 224, 2-(2-((2-chlorophenyl)amino)-2-oxoethoxy)-N-(2-oxo-2-phenylethyl)benzamide] | 1.13 | 1.25 | –
32 | CCCCN(CCO)Cc1cccc(C(=O)NCC(=O)c2cccc(OC)c2)c1 [Example 288, 3-((butyl (2-hydroxyethyl)amino)methyl)-N-(2-(3-methoxyphenyl)-2-oxoethyl)benzamide] | 1.73 | 1.222 | –
33 | CCN(Cc1cccc(C(=O)NCC(=O)c2ccccc2)c1)c1ccccc1 [Example 239, 3-((ethyl(phenyl)amino)methyl)-N-(2-oxo-2-phenylethyl)benzamide] | 1.08 | 1.135 | –
34 | C#CN(C)Cc1ccc(C(=O)NCC(=O)c2ccccc2)cc1 [Example 275, 4-((ethynyl(methyl)amino)methyl)-N-(2-oxo-2-phenylethyl)benzamide] | 6.85 | 1.146 | –
35 | O=C(CNC(=O)c1ccc(F)cc1Cl)c1ccc(Cl)cc1 [Example 76, 2-chloro-N-(2-(4-chlorophenyl)-2-oxoethyl)-4-fluorobenzamide] | 0.83 | 1.12 | –
